Experimental data as given in ChEMBL document CHEMBL1145159 (J Med Chem, 2005).
Several values for one entry are separate records, joined by “and”; a condition that tells them apart may be missing. Equal entries are not always repeated.

Assays:
[1] = biological target: T1, Neuronal acetylcholine receptor; alpha4/beta2 (Homo sapiens, UniProt P17787+P43681); test: Effective concentration against Nicotinic acetylcholine receptor alpha4-beta2; format: protein-complex assay
[2] = biological target: T2, Neuronal acetylcholine receptor; alpha3/beta2 (Homo sapiens, UniProt P17787+P32297); test: Effective concentration against Nicotinic acetylcholine receptor alpha3-beta2; format: protein-complex assay
[3] = biological target: T3, Neuronal acetylcholine receptor subunit alpha-7 (Homo sapiens, UniProt P36544); test: Effective concentration against Nicotinic acetylcholine receptor alpha 7
[4] = biological target: T3, Neuronal acetylcholine receptor subunit alpha-7; test: Inhibitory concentration against Nicotinic acetylcholine receptor alpha7; Range is 0.3-1.5 nM
[5] = biological target: T1, Neuronal acetylcholine receptor; alpha4/beta2; test: Inhibitory concentration against Nicotinic acetylcholine receptor alpha4-beta2; Range is 0.3-1.5 nM; format: protein-complex assay
[6] = biological target: Neuronal acetylcholine receptor; alpha2/beta2 (Homo sapiens, UniProt P17787+Q15822); test: Inhibitory concentration against Nicotinic acetylcholine receptor alpha2-beta2; Range is 0.3-1.5 nM; format: protein-complex assay
[7] = biological target: T4, Neuronal acetylcholine receptor; alpha4/beta4 (Homo sapiens, UniProt P30926+P43681); test: Inhibitory concentration against Nicotinic acetylcholine receptor alpha4-beta4; Range is 0.3-1.5 nM; format: protein-complex assay
[8] = biological target: T5, Neuronal acetylcholine receptor; alpha2/beta4 (Homo sapiens, UniProt P30926+Q15822); test: Inhibitory concentration against Nicotinic acetylcholine receptor alpha2-beta4; Range is 0.3-1.5 nM; format: protein-complex assay
[9] = biological target: T2, Neuronal acetylcholine receptor; alpha3/beta2; test: Inhibitory concentration against Nicotinic acetylcholine receptor alpha3-beta2; Range is 0.3-1.5 nM; format: protein-complex assay
[10] = biological target: T1, Neuronal acetylcholine receptor; alpha4/beta2; test: Ki or IC50 concentration against Nicotinic acetylcholine receptor alpha4-beta2 expressed in xenopus oocytes; format: cell-based; details: Oocyte
[11] = biological target: T4, Neuronal acetylcholine receptor; alpha4/beta4; test: Ki or IC50 concentration against Nicotinic acetylcholine receptor alpha4-beta4 expressed in xenopus oocytes; format: cell-based; details: Oocyte
[12] = biological target: T6, Neuronal acetylcholine receptor; alpha3/beta4 (Homo sapiens, UniProt P30926+P32297); test: Inhibitory concentration against Nicotinic acetylcholine receptor alpha3-beta4; format: protein-complex assay
[13] = Inhibitory concentration against Nicotinic acetylcholine receptor alpha3-beta4 expressed in xenopus oocytes; format: cell-based; details: oocyte
[14] = biological target: T3, Neuronal acetylcholine receptor subunit alpha-7; test: Inhibitory concentration against Nicotinic acetylcholine receptor alpha 7
[15] = biological target: T3, Neuronal acetylcholine receptor subunit alpha-7; test: Inhibitory concentration against Nicotinic acetylcholine receptor alpha-7 expressed in xenopus oocytes; format: cell-based; details: xenopus oocyte
[16] = Inhibitory concentration against Nicotinic acetylcholine receptor alpha2-beta4 expressed in xenopus oocytes; format: cell-based; details: oocyte
[17] = biological target: T1, Neuronal acetylcholine receptor; alpha4/beta2; test: (§1) Inhibitory concentration against Nicotinic acetylcholine receptor alpha4-beta2; format: protein-complex assay
[18] = biological target: T2, Neuronal acetylcholine receptor; alpha3/beta2; test: Inhibitory concentration against Nicotinic acetylcholine receptor alpha3-beta2 expressed in xenopus oocytes; format: cell-based, Oocyte
[19] = biological target: T5, Neuronal acetylcholine receptor; alpha2/beta4; test: Inhibitory concentration against Nicotinic acetylcholine receptor alpha2-beta4; format: protein-complex assay
[20] = biological target: T2, Neuronal acetylcholine receptor; alpha3/beta2; test: Inhibitory concentration against Nicotinic acetylcholine receptor alpha3-beta2; format: protein-complex assay
[21] = biological target: T2, Neuronal acetylcholine receptor; alpha3/beta2; test: Maximal response against Nicotinic acetylcholine receptor alpha3-beta2; format: protein-complex assay
[22] = biological target: T1, Neuronal acetylcholine receptor; alpha4/beta2; test: Maximal response against Nicotinic acetylcholine receptor alpha4-beta2; format: protein-complex assay
[23] = biological target: T6, Neuronal acetylcholine receptor; alpha3/beta4; test: Maximal response against Nicotinic acetylcholine receptor alpha3-beta4; format: protein-complex assay
[24] = biological target: T4, Neuronal acetylcholine receptor; alpha4/beta4; test: Maximal response against Nicotinic acetylcholine receptor alpha4-beta4; format: protein-complex assay
[25] = biological target: T5, Neuronal acetylcholine receptor; alpha2/beta4; test: Maximal response against Nicotinic acetylcholine receptor alpha2-beta4; format: protein-complex assay
[26] = biological target: T1, Neuronal acetylcholine receptor; alpha4/beta2; test: as §1; format: protein-complex assay; remark: listed apart in the source
[27] = biological target: Neuronal acetylcholine receptor subunit alpha-7 (Rattus norvegicus) (UniProt Q05941); test: Maximal response against Nicotinic acetylcholine receptor alpha 7
[28] = biological target: T2, Neuronal acetylcholine receptor; alpha3/beta2; test: Effective concentration against Nicotinic acetylcholine receptor alpha3-beta2 expressed in xenopus oocytes; format: cell-based, Oocyte
[29] = Effective concentration against Nicotinic acetylcholine receptor alpha3-beta4 expressed in xenopus oocytes; format: cell-based; details: oocyte
[30] = Effective concentration against Nicotinic acetylcholine receptor alpha4-beta2 expressed in xenopus oocytes; format: cell-based; details: oocyte
[31] = biological target: T6, Neuronal acetylcholine receptor; alpha3/beta4; test: Effective concentration against Nicotinic acetylcholine receptor alpha3-beta4; format: protein-complex assay
[32] = biological target: T5, Neuronal acetylcholine receptor; alpha2/beta4; test: Effective concentration against Nicotinic acetylcholine receptor alpha2-beta4; format: protein-complex assay
[33] = biological target: T4, Neuronal acetylcholine receptor; alpha4/beta4; test: Effective concentration against Nicotinic acetylcholine receptor alpha4-beta4; format: protein-complex assay

T5 sequence (P30926 whole entry): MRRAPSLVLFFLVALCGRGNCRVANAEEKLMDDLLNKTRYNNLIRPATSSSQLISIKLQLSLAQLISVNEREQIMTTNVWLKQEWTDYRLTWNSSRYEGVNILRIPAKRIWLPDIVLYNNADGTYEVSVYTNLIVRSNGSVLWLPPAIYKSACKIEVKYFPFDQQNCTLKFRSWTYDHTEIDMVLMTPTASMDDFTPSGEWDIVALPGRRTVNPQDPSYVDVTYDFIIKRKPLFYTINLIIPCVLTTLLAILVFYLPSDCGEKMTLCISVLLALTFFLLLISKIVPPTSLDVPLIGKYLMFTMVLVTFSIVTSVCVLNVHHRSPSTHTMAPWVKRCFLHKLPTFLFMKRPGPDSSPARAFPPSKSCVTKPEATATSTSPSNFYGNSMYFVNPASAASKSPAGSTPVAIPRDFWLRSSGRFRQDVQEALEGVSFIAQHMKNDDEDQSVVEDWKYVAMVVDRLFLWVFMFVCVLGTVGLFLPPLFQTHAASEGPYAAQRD
T5 sequence (Q15822 whole entry): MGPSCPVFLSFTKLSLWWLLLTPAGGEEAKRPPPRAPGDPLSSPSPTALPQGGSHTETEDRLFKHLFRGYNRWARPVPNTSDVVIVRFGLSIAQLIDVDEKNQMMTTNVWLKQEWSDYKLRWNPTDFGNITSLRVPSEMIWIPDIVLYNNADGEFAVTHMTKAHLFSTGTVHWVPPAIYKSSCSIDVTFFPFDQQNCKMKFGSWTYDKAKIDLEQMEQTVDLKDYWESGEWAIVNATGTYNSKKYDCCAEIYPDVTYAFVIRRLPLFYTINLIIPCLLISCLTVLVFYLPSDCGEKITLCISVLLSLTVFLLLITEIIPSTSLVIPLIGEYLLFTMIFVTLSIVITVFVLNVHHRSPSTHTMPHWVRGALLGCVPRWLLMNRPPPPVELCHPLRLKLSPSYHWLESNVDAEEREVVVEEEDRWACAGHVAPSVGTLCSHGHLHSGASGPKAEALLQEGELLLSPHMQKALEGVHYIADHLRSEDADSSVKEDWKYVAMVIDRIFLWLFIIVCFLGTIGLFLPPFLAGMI
T6 sequence (P30926 whole entry): as the sequence (P30926 whole entry) above
T6 sequence (P32297 whole entry): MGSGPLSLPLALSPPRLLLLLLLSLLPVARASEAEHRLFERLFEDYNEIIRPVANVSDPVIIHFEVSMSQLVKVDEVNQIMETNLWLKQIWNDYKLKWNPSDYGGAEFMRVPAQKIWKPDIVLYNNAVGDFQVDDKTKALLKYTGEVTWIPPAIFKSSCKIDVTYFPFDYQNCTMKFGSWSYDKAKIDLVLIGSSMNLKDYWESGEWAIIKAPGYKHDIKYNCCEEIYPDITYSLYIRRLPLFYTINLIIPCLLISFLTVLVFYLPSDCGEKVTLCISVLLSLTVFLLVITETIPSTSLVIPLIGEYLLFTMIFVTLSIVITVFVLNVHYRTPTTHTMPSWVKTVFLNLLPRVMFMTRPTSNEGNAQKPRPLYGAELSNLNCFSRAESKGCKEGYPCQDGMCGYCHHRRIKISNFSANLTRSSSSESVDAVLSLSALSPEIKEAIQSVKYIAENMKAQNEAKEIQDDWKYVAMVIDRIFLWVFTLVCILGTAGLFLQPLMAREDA
T1 sequence (P17787 whole entry): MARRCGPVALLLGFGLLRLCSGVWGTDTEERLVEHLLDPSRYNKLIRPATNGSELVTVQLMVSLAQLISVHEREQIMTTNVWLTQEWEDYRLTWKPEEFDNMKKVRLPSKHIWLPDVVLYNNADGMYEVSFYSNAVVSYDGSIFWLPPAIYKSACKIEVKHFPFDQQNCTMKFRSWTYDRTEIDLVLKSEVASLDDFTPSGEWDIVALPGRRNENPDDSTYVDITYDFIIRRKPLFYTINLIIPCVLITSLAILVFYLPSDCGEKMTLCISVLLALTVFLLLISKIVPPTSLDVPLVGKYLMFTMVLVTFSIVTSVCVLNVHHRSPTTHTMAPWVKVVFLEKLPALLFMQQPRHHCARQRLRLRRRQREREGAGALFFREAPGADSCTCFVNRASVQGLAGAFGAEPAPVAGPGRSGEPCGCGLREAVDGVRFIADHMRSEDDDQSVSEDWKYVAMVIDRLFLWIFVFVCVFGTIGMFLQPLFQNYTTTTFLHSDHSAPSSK
T1 sequence (P43681 whole entry): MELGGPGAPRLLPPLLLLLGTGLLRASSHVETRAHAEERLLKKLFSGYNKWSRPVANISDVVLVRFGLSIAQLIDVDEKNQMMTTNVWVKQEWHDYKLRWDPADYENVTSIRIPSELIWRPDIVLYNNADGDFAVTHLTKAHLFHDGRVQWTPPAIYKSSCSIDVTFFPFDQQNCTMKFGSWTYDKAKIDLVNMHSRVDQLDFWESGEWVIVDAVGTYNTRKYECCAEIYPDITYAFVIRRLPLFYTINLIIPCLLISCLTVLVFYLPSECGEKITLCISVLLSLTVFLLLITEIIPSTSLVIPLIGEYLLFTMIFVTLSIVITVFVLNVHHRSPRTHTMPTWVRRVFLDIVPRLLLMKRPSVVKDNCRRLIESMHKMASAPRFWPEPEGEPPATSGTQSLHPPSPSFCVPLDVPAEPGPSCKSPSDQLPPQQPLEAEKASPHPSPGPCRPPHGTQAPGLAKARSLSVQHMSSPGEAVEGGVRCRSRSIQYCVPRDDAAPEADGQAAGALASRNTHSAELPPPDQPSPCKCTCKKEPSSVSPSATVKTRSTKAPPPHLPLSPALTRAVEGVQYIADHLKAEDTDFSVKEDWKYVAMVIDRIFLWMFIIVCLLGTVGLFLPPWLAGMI
T2 sequence (P17787 whole entry): as the sequence (P17787 whole entry) above
T2 sequence (P32297 whole entry): as the sequence (P32297 whole entry) above
Chain of Neuronal acetylcholine receptor subunit alpha-7 (Rattus norvegicus) (Q05941 whole entry): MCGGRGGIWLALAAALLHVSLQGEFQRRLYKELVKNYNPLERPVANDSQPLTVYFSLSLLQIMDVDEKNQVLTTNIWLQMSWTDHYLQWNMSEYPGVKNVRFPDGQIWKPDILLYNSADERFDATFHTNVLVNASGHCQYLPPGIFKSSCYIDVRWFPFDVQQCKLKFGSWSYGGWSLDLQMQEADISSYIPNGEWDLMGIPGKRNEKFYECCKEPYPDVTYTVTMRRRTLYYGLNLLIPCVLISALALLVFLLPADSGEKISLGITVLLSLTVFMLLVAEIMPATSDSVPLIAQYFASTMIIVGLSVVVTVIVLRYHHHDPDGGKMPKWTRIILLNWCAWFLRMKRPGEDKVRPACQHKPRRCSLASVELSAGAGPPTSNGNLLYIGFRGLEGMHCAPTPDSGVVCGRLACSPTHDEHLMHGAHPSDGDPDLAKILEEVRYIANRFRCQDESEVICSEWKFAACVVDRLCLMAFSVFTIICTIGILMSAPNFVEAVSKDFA
T3 sequence (P36544 whole entry): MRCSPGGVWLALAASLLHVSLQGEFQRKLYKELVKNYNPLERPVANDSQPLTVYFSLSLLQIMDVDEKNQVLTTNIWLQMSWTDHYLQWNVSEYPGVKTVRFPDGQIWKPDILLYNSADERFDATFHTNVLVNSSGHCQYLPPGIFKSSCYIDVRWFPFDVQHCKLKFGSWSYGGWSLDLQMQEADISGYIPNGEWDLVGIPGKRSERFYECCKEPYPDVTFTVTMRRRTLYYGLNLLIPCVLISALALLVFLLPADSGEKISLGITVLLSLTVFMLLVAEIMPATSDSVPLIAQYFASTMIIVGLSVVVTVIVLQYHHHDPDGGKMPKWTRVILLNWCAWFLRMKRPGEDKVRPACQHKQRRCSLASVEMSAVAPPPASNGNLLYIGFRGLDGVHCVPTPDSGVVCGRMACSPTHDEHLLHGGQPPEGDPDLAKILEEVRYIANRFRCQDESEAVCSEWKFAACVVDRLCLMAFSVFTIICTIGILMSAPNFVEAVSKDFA
T4 sequence (P30926 whole entry): as the sequence (P30926 whole entry) above
T4 sequence (P43681 whole entry): as the sequence (P43681 whole entry) above
Chain of Neuronal acetylcholine receptor; alpha2/beta2 (P17787 whole entry): as the sequence (P17787 whole entry) above
Chain of Neuronal acetylcholine receptor; alpha2/beta2 (Q15822 whole entry): as the sequence (Q15822 whole entry) above

Structure (SMILES): CN1C2CC[C@@H]1CC2c1ccnnc1 (stereo partly specified)
- EC50 [1]: 0.32 µM
- EC50 [2]: 0.013 µM
- EC50 [3]: 25 µM

Structure (SMILES): C[C@H](NC(=O)[C@H](Cc1ccccc1)NC(=O)[C@H](CS)NC(=O)[C@@H]1CCCN1C(=O)[C@@H]1CCCN1C(=O)[C@H](Cc1ccc(O)cc1)NC(=O)[C@H](CO)NC(=O)[C@H](CS)NC(=O)[C@H](CS)NC(=O)CN)C(=O)N[C@H](C(=O)N[C@@H](CC(N)=O)C(=O)N1CCC[C@H]1C(=O)N[C@@H](CC(=O)O)C(=O)N[C@H](C=O)CS)[C@@H](C)O
- IC50 [4]: 0.00075 µM
- IC50 [5]: 0.00075 µM
- IC50 [6]: 0.00075 µM
- IC50 [7]: 0.00075 µM
- IC50 [8]: 0.00075 µM
- IC50 [9]: 0.00075 µM

Structure (SMILES): CO[C@@H]1CC=C2CCN3CCC4=C(CC(=O)OC4)[C@@]23C1
- Concentration [10]: 0.11 µM
- Concentration [11]: 0.01 µM
- IC50 [12]: 43 µM and 240 µM
- IC50 [13]: 14 µM
- IC50 [14]: 98 µM
- Concentration [15]: 20 µM
- IC50 [16]: 3.6 µM
- Concentration [17]: 2.7 µM

Structure (SMILES): COc1cc2c3cc1Oc1cccc(c1O)C[C@@H]1c4c(cc(OC)c(O)c4Oc4ccc(cc4)CC3N(C)CC2)CC[N+]1(C)C (stereo partly specified)
- Concentration [10]: 3.2 µM
- IC50 [18]: 2.4 µM
- IC50 [19]: 2.3 µM and 4 µM
- Concentration [11]: 0.21 µM
- IC50 [12]: 4.1 µM and 0.73 µM
- IC50 [13]: 2.2 µM
- IC50 [14]: 14.7 µM
- Concentration [15]: 3.1 µM
- IC50 [20]: 0.23 µM
- IC50 [16]: 4.2 µM
- Concentration [17]: 7.6 µM

Structure (SMILES): CN1CCC[C@H]1CCSc1ccc(O)cc1
- Rmax [21]: 9%
- Rmax [22]: 13%
- Rmax [23]: 71%
- Rmax [24]: 62%
- Rmax [25]: 102%
- EC50 [3]: > 10 µM

Structure (SMILES): C[C@H](NC(=O)[C@H](C)NC(=O)[C@H](CS)NC(=O)[C@H](C)NC(=O)[C@@H]1CCCN1C(=O)[C@H](Cc1c[nH]cn1)NC(=O)[C@H](CO)NC(=O)[C@H](CS)NC(=O)[C@H](CS)NC(=O)CNC(=O)CN)C(=O)N[C@@H](CC(N)=O)C(=O)N[C@@H](CC(N)=O)C(=O)N[C@@H](CCC(N)=O)C(=O)N[C@@H](CC(=O)O)C(=O)N[C@@H](Cc1ccc(O)cc1)C(=O)N[C@@H](CS)C(N)=O
- IC50 [12]: 0.0003 µM
- IC50 [26]: 0.0003 µM
- IC50 [14]: 0.0003 µM
- IC50 [20]: 0.0003 µM

Structure (SMILES): CC[C@H](C)[C@H](NC(=O)[C@H](Cc1c[nH]cn1)NC(=O)[C@H](CCC(N)=O)NC(=O)[C@H](CC(N)=O)NC(=O)[C@H](CC(N)=O)NC(=O)CNC(=O)[C@H](C)NC(=O)[C@H](CS)NC(=O)[C@H](C)NC(=O)[C@@H]1CCCN1C(=O)[C@H](Cc1c[nH]cn1)NC(=O)[C@H](CO)NC(=O)[C@H](CS)NC(=O)[C@H](CS)NC(=O)CN)C(=O)N[C@@H](CS)C(N)=O
- IC50 [26]: 0.0011 µM
- IC50 [14]: 0.0011 µM
- IC50 [20]: 0.0011 µM

Structure (SMILES): O=C1NCC2(CN3CCC2CC3)O1 (stereo unspecified)
- Rmax [27]: 78%
- EC50 [28]: > 1000 µM
- EC50 [29]: > 1000 µM
- EC50 [30]: > 2000 µM

Structure (SMILES): c1ccc(-c2cnc3c(c2)CC2(CN4CCC2CC4)O3)cc1 (stereo unspecified)
- EC50 [31]: > 100 µM
- Rmax [27]: 85%
- EC50 [32]: > 100 µM
- EC50 [1]: > 100 µM
- EC50 [33]: > 100 µM
- EC50 [2]: > 100 µM

Structure (SMILES): CN1CCC[C@H]1COc1cnc(Cl)c(-c2ccc(Cl)cc2)c1
- IC50 [12]: 9.2 µM
- IC50 [14]: 8.5 µM
- Concentration [17]: 0.96 µM

Structure (SMILES): Clc1ccc(C2=CCC[C@H]3CCC2N3)cn1
- Rmax [27]: 55%
- Rmax [21]: 50%
- Rmax [22]: 15%
- Rmax [23]: 50%
- Rmax [24]: 70%
- Rmax [25]: 50%

Structure (SMILES): CC[N+](CC)(CC)CCOc1ccc(/C=C/c2ccccc2)cc1
- Concentration [17]: 3.2 µM
